Results reported in patent publication US11612606B2, “8-aminoisoquinoline compounds and uses thereof” (priority 2018, dated 2023).
Counter-ions that a name gives are not always drawn. Like-named read-outs stand apart in the source and are kept apart here.

Target: HPK full length, T165E S171E (Homo sapiens (Human), UniProt Q92918, S171E/T165E)
Experiment: HPK1-FL HTRF enzymatic assay ("HTRF")
Type: biochemical
Conditions: ATP 1 mM
Outline: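 Full-length HPK1 (T165E/S171E) was preincubated 30 min with compound, then reacted 60 min with biotin-SLP-76 and 1 mM ATP. Phospho-SLP-76 was detected by HTRF (Eu-anti-pSLP76 antibody, SA-XL665) after a further 60 min.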

Sequence of HPK full length, T165E S171E (Q92918 whole entry T165E/S171E, looked up): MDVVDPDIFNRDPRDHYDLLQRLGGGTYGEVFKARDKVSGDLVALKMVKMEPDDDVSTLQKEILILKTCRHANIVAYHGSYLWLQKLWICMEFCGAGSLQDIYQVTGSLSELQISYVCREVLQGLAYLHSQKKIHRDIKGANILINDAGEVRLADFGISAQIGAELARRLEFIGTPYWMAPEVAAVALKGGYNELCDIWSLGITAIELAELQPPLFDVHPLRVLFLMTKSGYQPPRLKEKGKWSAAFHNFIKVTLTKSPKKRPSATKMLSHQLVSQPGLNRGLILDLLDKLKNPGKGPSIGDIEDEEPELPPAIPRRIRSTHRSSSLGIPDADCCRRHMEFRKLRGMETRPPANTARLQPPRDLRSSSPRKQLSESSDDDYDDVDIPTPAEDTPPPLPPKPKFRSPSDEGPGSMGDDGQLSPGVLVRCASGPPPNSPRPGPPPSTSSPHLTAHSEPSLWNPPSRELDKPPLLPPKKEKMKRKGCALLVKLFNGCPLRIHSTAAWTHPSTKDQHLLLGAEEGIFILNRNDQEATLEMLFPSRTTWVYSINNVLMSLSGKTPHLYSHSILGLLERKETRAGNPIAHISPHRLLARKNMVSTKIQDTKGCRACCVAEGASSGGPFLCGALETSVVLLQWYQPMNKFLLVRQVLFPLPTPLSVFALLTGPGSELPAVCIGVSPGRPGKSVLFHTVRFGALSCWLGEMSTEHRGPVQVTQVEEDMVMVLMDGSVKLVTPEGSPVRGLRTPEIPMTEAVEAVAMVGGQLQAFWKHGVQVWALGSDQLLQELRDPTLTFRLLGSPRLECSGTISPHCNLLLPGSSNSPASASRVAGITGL

Row | SMILES | Ki (read-out: HPK1 Ki) | Ki (HPK1 Ki)
1 | Cc1c(-c2cc3cc(NC(=O)OC(C)C)ncc3c(N)c2F)cnc2c1NCCO2 [Compound 436, Isopropyl (8-amino-7-fluoro-6-(8-methyl-2,3-dihydro-1H-pyrido[2,3-b][1,4]oxazin-7-yl)isoquinolin-3-yl)carbamate] | 0.014 nM | –
2 | Cc1c(-c2cc3cc(NC(=O)OC4CC5(C4)CN(C4COC4)C5)ncc3c(N)c2F)cnc2c1NCCO2 [Compound 443, 2-(Oxetan-3-yl)-2-azaspiro[3.3]heptan-6-yl (8-amino-7-fluoro-6-(8-methyl-2,3-dihydro-1H-pyrido[2,3-b][1,4]oxazin-7-yl)isoquinolin-3-yl)carbamate] | < 0.013 nM | –
3 | Cc1c(-c2cc3cc(NC(=O)O[C@@H]4CCN(C5COC5)C[C@@H]4F)ncc3c(N)c2F)cnc2c1NCCO2 [Compound 445c, (3S,4R)-3-Fluoro-1-(oxetan-3-yl)piperidin-4-yl (8-amino-7-fluoro-6-(8-methyl-2,3-dihydro-1H-pyrido[2,3-b][1,4]oxazin-7-yl)isoquinolin-3-yl)carbamate] | 0.015 nM | –
4 | Cc1c(-c2cc3cc(NC(=O)O[C@H]4CCN(C5COC5)C[C@H]4F)ncc3c(N)c2F)cnc2c1NCCO2 [Compound 445d, (3R,4S)-3-Fluoro-1-(oxetan-3-yl)piperidin-4-yl (8-amino-7-fluoro-6-(8-methyl-2,3-dihydro-1H-pyrido[2,3-b][1,4]oxazin-7-yl)isoquinolin-3-yl)carbamate] | < 0.013 nM | –
5 | Cc1c(-c2cc3cc(NC(=O)O[C@H]4C[C@H](N(C)C)C4)ncc3c(N)c2F)cnc2c1NCCO2 [Compound 447a, (1r,3r)-3-(Dimethylamino)cyclobutyl (8-amino-7-fluoro-6-(8-methyl-2,3-dihydro-1H-pyrido[2,3-b][1,4]oxazin-7-yl)isoquinolin-3-yl)carbamate hydrochloride] | < 0.013 nM | –
6 | Cc1c(-c2cc3cc(NC(=O)OCC4(F)CN(C)C4)ncc3c(N)c2F)cnc2c1NCCO2 [Compound 450, (3-Fluoro-1-methyl-azetidin-3-yl)methyl N-[8-amino-7-fluoro-6-(8-methyl-2,3-dihydro-1H-pyrido[2,3-b][1,4]oxazin-7-yl)-3-isoquinolyl]carbamate] | 0.13 nM | –
7 | Cc1c(-c2cc3cc(NC(=O)O[C@H]4CN(C)C[C@@H]4F)ncc3c(N)c2F)cnc2c1NCCO2 [Compound 452a, (3S,4S)-4-Fluoro-1-methylpyrrolidin-3-yl (8-amino-7-fluoro-6-(8-methyl-2,3-dihydro-1H-pyrido[2,3-b][1,4]oxazin-7-yl)isoquinolin-3-yl)carbamate] | 0.03 nM | –
8 | Cc1c(-c2cc3cc(NC(=O)O[C@@H]4CN(C)C[C@H]4F)ncc3c(N)c2F)cnc2c1NCCO2 [Compound 452b, (3R,4R)-4-Fluoro-1-methylpyrrolidin-3-yl (8-amino-7-fluoro-6-(8-methyl-2,3-dihydro-1H-pyrido[2,3-b][1,4]oxazin-7-yl)isoquinolin-3-yl)carbamate] | – | 0.036 nM
9 | Cc1c(-c2cc3cc(NC(=O)O[C@H]4CN(C)C[C@H]4F)ncc3c(N)c2F)cnc2c1NCCO2 [Compound 452c, (3S,4R)-4-Fluoro-1-methylpyrrolidin-3-yl (8-amino-7-fluoro-6-(8-methyl-2,3-dihydro-1H-pyrido[2,3-b][1,4]oxazin-7-yl)isoquinolin-3-yl)carbamate] | 0.17 nM | –
10 | Cc1c(-c2cc3cc(NC(=O)OC4CN(C)CCN(C)C4)ncc3c(N)c2F)cnc2c1NCCO2 [Compound 465, 1,4-Dimethyl-1,4-diazepan-6-yl (8-amino-7-fluoro-6-(8-methyl-2,3-dihydro-1H-pyrido[2,3-b][1,4]oxazin-7-yl)isoquinolin-3-yl)carbamate] | 0.46 nM | –
11 | COCCN1CC(OC(=O)Nc2cc3cc(-c4cnc5c(c4C)NCCO5)c(F)c(N)c3cn2)C1 [Compound 474, 1-(2-Methoxyethyl)azetidin-3-yl (8-amino-7-fluoro-6-(8-methyl-2,3-dihydro-1H-pyrido[2,3-b][1,4]oxazin-7-yl)isoquinolin-3-yl)carbamate] | 0.06 nM | –
12 | Cc1c(-c2cc3cc(NC(=O)O[C@@H]4COC[C@H]4F)ncc3c(N)c2F)cnc2c1NCCO2 [Compound 477a, (3R,4R)-4-Fluorotetrahydrofuran-3-yl (8-amino-7-fluoro-6-(8-methyl-2,3-dihydro-1H-pyrido[2,3-b][1,4]oxazin-7-yl)isoquinolin-3-yl)carbamate] | 0.034 nM | –
13 | Cc1c(-c2cc3cc(NC(=O)O[C@H]4COC[C@H]4F)ncc3c(N)c2F)cnc2c1NCCO2 [Compound 477c, (3S,4R)-4-Fluorotetrahydrofuran-3-yl (8-amino-7-fluoro-6-(8-methyl-2,3-dihydro-1H-pyrido[2,3-b][1,4]oxazin-7-yl)isoquinolin-3-yl)carbamate] | 0.15 nM | –
14 | Cc1c(-c2cc3cc(NC(=O)O[C@H]4C[C@@H](C#N)C4)ncc3c(N)c2F)cnc2c1NCCC2 [Compound 483a, (1s,3s)-3-Cyanocyclobutyl (8-amino-7-fluoro-6-(4-methyl-5,6,7,8-tetrahydro-1,5-naphthyridin-3-yl)isoquinolin-3-yl)carbamate] | < 0.013 nM | –
15 | Cc1c(-c2cc3cc(NC(=O)O[C@H]4C[C@@H](C#N)C4)ncc3c(N)c2F)cnc2c1NCCO2 [Compound 484a, (1s,3s)-3-Cyanocyclobutyl (8-amino-7-fluoro-6-(8-methyl-2,3-dihydro-1H-pyrido[2,3-b][1,4]oxazin-7-yl)isoquinolin-3-yl)carbamate] | < 0.013 nM | –
16 | Cc1c(-c2cc3cc(NC(=O)O[C@H]4C[C@@H](O)C4)ncc3c(N)c2F)cnc2c1NCCO2 [Compound 485a, (1s,3s)-3-Hydroxycyclobutyl (8-amino-7-fluoro-6-(8-methyl-2,3-dihydro-1H-pyrido[2,3-b][1,4]oxazin-7-yl)isoquinolin-3-yl)carbamate] | < 0.013 nM | –
17 | Cc1c(-c2cc3cc(NC(=O)O[C@H]4C[C@H](O)C4)ncc3c(N)c2F)cnc2c1NCCO2 [Compound 485b, (1r,3r)-3-Hydroxycyclobutyl (8-amino-7-fluoro-6-(8-methyl-2,3-dihydro-1H-pyrido[2,3-b][1,4]oxazin-7-yl)isoquinolin-3-yl)carbamate] | < 0.013 nM | –
18 | Cc1c(-c2cc3cc(NC(=O)O[C@H]4C[C@](C)(O)C4)ncc3c(N)c2F)cnc2c1NCCO2 [Compound 486b, (1r,3r)-3-Hydroxy-3-methylcyclobutyl (8-amino-7-fluoro-6-(8-methyl-2,3-dihydro-1H-pyrido[2,3-b][1,4]oxazin-7-yl)isoquinolin-3-yl)carbamate] | 0.018 nM | –
19 | Cc1c(-c2cc3cc(NC(=O)OC4CCC4)ncc3c(N)c2F)cnc2c1NCCO2 [Compound 487, Cyclobutyl (8-amino-7-fluoro-6-(8-methyl-2,3-dihydro-1H-pyrido[2,3-b][1,4]oxazin-7-yl)isoquinolin-3-yl)carbamate] | < 0.013 nM | –
20 | CCC(=O)N1CC(OC(=O)Nc2cc3cc(-c4cnc5c(c4C)NCCC5)c(F)c(N)c3cn2)C1 [Compound 492, 1-Propionylazetidin-3-yl (8-amino-7-fluoro-6-(4-methyl-5,6,7,8-tetrahydro-1,5-naphthyridin-3-yl)isoquinolin-3-yl)carbamate] | 0.055 nM | –
21 | Cc1c(-c2cc3cc(NC(=O)OC4CN(S(C)(=O)=O)C4)ncc3c(N)c2F)cnc2c1NCCC2 [Compound 493, 1-(Methylsulfonyl)azetidin-3-yl (8-amino-7-fluoro-6-(4-methyl-5,6,7,8-tetrahydro-1,5-naphthyridin-3-yl)isoquinolin-3-yl)carbamate] | 0.064 nM | –
22 | Cc1c(-c2cc3cc(NC(=O)OC4CC5(C4)CN(CC(F)F)C5)ncc3c(N)c2F)cnc2c1NCCO2 [Compound 494, 2-(2,2-Difluoroethyl)-2-azaspiro[3.3]heptan-6-yl (8-amino-7-fluoro-6-(8-methyl-2,3-dihydro-1H-pyrido[2,3-b][1,4]oxazin-7-yl)isoquinolin-3-yl)carbamate] | < 0.013 nM | –
23 | Cc1c(-c2cc3cc(NC(=O)O[C@H]4[C@@H]5CN(C(C)C)C[C@@H]54)ncc3c(N)c2F)cnc2c1NCCO2 [Compound 499a, (1R,5S,6s)-3-Isopropyl-3-azabicyclo[3.1.0]hexan-6-yl (8-amino-7-fluoro-6-(8-methyl-2,3-dihydro-1H-pyrido[2,3-b][1,4]oxazin-7-yl)isoquinolin-3-yl)carbamate] | < 0.013 nM | –
24 | Cc1c(-c2cc3cc(NC(=O)O[C@H]4[C@@H]5CN(C6COC6)C[C@@H]54)ncc3c(N)c2F)cnc2c1NCCO2 [Compound 502a, (1R,5S,6s)-3-(Oxetan-3-yl)-3-azabicyclo[3.1.0]hexan-6-yl (8-amino-7-fluoro-6-(8-methyl-2,3-dihydro-1H-pyrido[2,3-b][1,4]oxazin-7-yl)isoquinolin-3-yl)carbamate] | < 0.013 nM | –
25 | CC[C@]1(O)C[C@H](OC(=O)Nc2cc3cc(-c4cnc5c(c4C)NCCO5)c(F)c(N)c3cn2)C1 [Compound 512a, (1s,3r)-3-Ethyl-3-hydroxycyclobutyl (8-amino-7-fluoro-6-(8-methyl-2,3-dihydro-1H-pyrido[2,3-b][1,4]oxazin-7-yl)isoquinolin-3-yl)carbamate] | 0.015 nM | –
26 | Cc1c(-c2cc3cc(NC(=O)O[C@H]4C[C@@H](N5CC(F)(F)C5)C4)ncc3c(N)c2F)cnc2c1NCCO2 [Compound 513a, (1s, 3s)-3-(3,3-Difluoroazetidin-1-yl)cyclobutyl (8-amino-7-fluoro-6-(8-methyl-2,3-dihydro-1H-pyrido[2,3-b][1,4]oxazin-7-yl)isoquinolin-3-yl)carbamate] | 0.022 nM | –
27 | Cc1c(-c2cc3cc(NC(=O)O[C@H]4C[C@H](n5ccnc5)C4)ncc3c(N)c2F)cnc2c1NCCO2 [Compound 514a, (1r,3r)-3-(1H-Imidazol-1-yl)cyclobutyl (8-amino-7-fluoro-6-(8-methyl-2,3-dihydro-1H-pyrido[2,3-b][1,4]oxazin-7-yl)isoquinolin-3-yl)carbamate hydrochloride] | < 0.013 nM | –
28 | Cc1c(-c2cc3cc(NC(=O)O[C@H]4C[C@@H](C(=O)N5CCC5)C4)ncc3c(N)c2F)cnc2c1NCCO2 [Compound 517a, (1s,3s)-3-(Azetidine-1-carbonyl)cyclobutyl (8-amino-7-fluoro-6-(8-methyl-2,3-dihydro-1H-pyrido[2,3-b][1,4]oxazin-7-yl)isoquinolin-3-yl)carbamate] | < 0.013 nM | –
